Experimental data from PubChem BioAssay (NCI).
Several values for one entry are separate records, joined by “and”; a condition that tells them apart may be missing. Identical values can stand only once.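 GI50 is the concentration that inhibits growth by half. TGI: total growth inhibition.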

Legend:
Assay in all cases: growth of human tumour cells (NCI), 384-well format
UACC-257 melanoma = test system: UACC-257 melanoma
SF-539 CNS = test system: SF-539 CNS
TK-10 renal = test system: TK-10 renal
NCI-H460 NSCLC = test system: NCI-H460 NSCLC
A498 renal = test system: A498 renal
OVCAR-4 ovarian = test system: OVCAR-4 ovarian
EKVX NSCLC = test system: EKVX NSCLC
SK-MEL-2 melanoma = test system: SK-MEL-2 melanoma
SF-268 CNS = test system: SF-268 CNS
COLO 205 colon = test system: COLO 205 colon
HCT-15 colon = test system: HCT-15 colon
NCI-H522 lung = test system: NCI-H522 lung
SN12C renal = test system: SN12C renal
SK-MEL-28 melanoma = test system: SK-MEL-28 melanoma
DU-145 prostate = test system: DU-145 prostate
M14 melanoma = test system: M14 melanoma
HS 578T breast = test system: HS 578T breast
RXF 393 renal = test system: RXF 393 renal
HOP-92 NSCLC = test system: HOP-92 NSCLC
OVCAR-5 ovarian = test system: OVCAR-5 ovarian
HL-60(TB) leukemia = test system: HL-60(TB) leukemia
IGROV1 ovarian = test system: IGROV1 ovarian
NCI-H23 lung = test system: NCI-H23 lung
K-562 leukemia = test system: K-562 leukemia
SK-MEL-5 melanoma = test system: SK-MEL-5 melanoma
SF-295 CNS = test system: SF-295 CNS

Compound: COc1ccc(C2=N[C@@H](c3ccc(Cl)cc3)[C@@H](c3ccc(Cl)cc3)N2C(=O)N2CCNC(=O)C2)c(OC(C)C)c1
- TGI (UACC-257 melanoma): 28.9 µM and 18 µM and 20.8 µM
- GI50 (SF-539 CNS): 16.1 µM and 13.7 µM and 10.6 µM
- TGI (SF-539 CNS): 29.6 µM and 26.8 µM and 22.4 µM
- GI50 (TK-10 renal): 15.1 µM and 13.5 µM and 11.3 µM
- TGI (TK-10 renal): 28.5 µM and 26.4 µM and 23.5 µM
- GI50 (NCI-H460 NSCLC): 15.3 µM and 10.4 µM and 8.98 µM
- TGI (NCI-H460 NSCLC): 28.9 µM and 22.5 µM and 21.3 µM
- TGI (A498 renal): 23.1 µM and 13.1 µM and 13.5 µM
- GI50 (OVCAR-4 ovarian): 14 µM and 14.2 µM and 13.8 µM
- TGI (OVCAR-4 ovarian): 27 µM and 27.4 µM and 26.8 µM
- GI50 (EKVX NSCLC): 15 µM and 15.3 µM and 14.6 µM
- TGI (EKVX NSCLC): 28.3 µM and 28.7 µM and 27.8 µM
- GI50 (SK-MEL-2 melanoma): 18.7 µM and 18.1 µM and 14.5 µM
- TGI (SK-MEL-2 melanoma): 32.7 µM and 32.1 µM and 27.7 µM
- GI50 (SF-268 CNS): 16.7 µM and 13.4 µM and 10.7 µM
- TGI (SF-268 CNS): 30.4 µM and 26.4 µM and 22.6 µM
- GI50 (COLO 205 colon): 15.9 µM and 16.8 µM and 14.9 µM
- TGI (COLO 205 colon): 29.5 µM and 30.7 µM and 28.3 µM
- GI50 (HCT-15 colon): 16 µM and 16.1 µM and 14 µM
- TGI (HCT-15 colon): 29.7 µM and 30.1 µM and 27.1 µM
- GI50 (NCI-H522 lung): 14.1 µM and 15 µM and 14.8 µM
- TGI (NCI-H522 lung): 27.1 µM and 28.3 µM and 28 µM
- GI50 (SN12C renal): 15.5 µM and 17.2 µM and 16.1 µM
- TGI (SN12C renal): 28.9 µM and 31 µM and 29.6 µM
- GI50 (SK-MEL-28 melanoma): 15.6 µM and 18.7 µM and 18 µM
- TGI (SK-MEL-28 melanoma): 29 µM and 32.9 µM and 32 µM
- GI50 (DU-145 prostate): 15.2 µM and 15.7 µM
- TGI (DU-145 prostate): 28.6 µM and 29.3 µM and 28.7 µM
- GI50 (M14 melanoma): 13.1 µM and 10 µM and 11.1 µM
- TGI (M14 melanoma): 25.8 µM and 21.6 µM and 23.1 µM
- GI50 (HS 578T breast): 13.4 µM and 12.8 µM and 12.2 µM
- TGI (HS 578T breast): 26.2 µM and 25.5 µM and 24.7 µM
- TGI (RXF 393 renal): 24.8 µM and 16.3 µM and 14.9 µM
- GI50 (HOP-92 NSCLC): 15.2 µM and 13.4 µM and 11.8 µM
- TGI (HOP-92 NSCLC): 28.5 µM and 26.3 µM and 24.1 µM
- GI50 (OVCAR-5 ovarian): 16.9 µM and 17.6 µM and 16.7 µM
- TGI (OVCAR-5 ovarian): 30.6 µM and 31.8 µM and 30.5 µM
- GI50 (HL-60(TB) leukemia): 2.99 µM and 3.06 µM and 3.55 µM
- TGI (HL-60(TB) leukemia): 12.9 µM and 15.7 µM and 15.8 µM
- GI50 (IGROV1 ovarian): 13.5 µM and 10.9 µM and 7.76 µM
- TGI (IGROV1 ovarian): 26.5 µM and 23 µM and 21 µM
- GI50 (NCI-H23 lung): 14.5 µM and 15.1 µM
- TGI (NCI-H23 lung): 27.6 µM and 28.5 µM
- GI50 (K-562 leukemia): 11.4 µM and 4.93 µM and 2.55 µM
- TGI (K-562 leukemia): 23.9 µM and 20.3 µM and 17 µM
- GI50 (SK-MEL-5 melanoma): 14.3 µM and 8.52 µM and 7.04 µM
- TGI (SK-MEL-5 melanoma): 27.5 µM and 20.6 µM and 20 µM
- GI50 (SF-295 CNS): 15.3 µM and 14.5 µM and 12.9 µM
- TGI (SF-295 CNS): 28.7 µM and 27.7 µM and 25.7 µM
